From the supplement of paper PMC8671470
± gives the standard deviation of the averaged measurements.

Test system: HL-60
Test: cell viability (% survival relative to DMSO control); higher = less cytotoxic
Conditions: 0.001 µM; 72 h; co-treatment: GSK2194069 100 nM
Procedure, shortened: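 For each screen, HL-60 cells in RPMI 1640 with 10% FBS carried either DMSO or 100 nM of one of three metabolic inhibitors while the full library was applied at five tenfold concentrations, 1–10,000 nM, in duplicate. Plates were 384-well and were kept 72 h at 37 °C, 5% CO2. Viability, measured by CellTiter-Glo, was normalised to wells with DMSO and with 10 μM proteasome inhibitor. Where area under the curve appears, it was fitted by four-parameter log-logistic models in drc and PharmacoGx.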

SMILES	cell viability [%]
O=C(O)CC[N+](=O)[O-] [3-nitropropionic acid]	98.1 ± 5.8
C=CC(=O)c1ccc(O)cc1 [4-Acryloylphenol]	104 ± 3.1
Cc1[nH]nc(C(F)(F)F)c1Cc1sc2c(c1C(=O)N1C[C@](C)(O)CO1)c(=O)n(C)c(=O)n2C(C)C [AZD3965]	98 ± 9.8
O=c1cc(-c2ccccc2)oc2c1ccc1ccccc12 [Alpha-Naphtoflavone]	98.2 ± 2.1

Same assay, conditions: 0.001 µM; 72 h; co-treatment: pictilisib 100 nM

SMILES	cell viability [%]
CN(CCCOc1ccc(Cc2ccccc2)cc1)CCC(=O)O	98.7 ± 14
COc1ccc2c(NC(=O)Nc3cccc(C(F)(F)F)n3)ccnc2c1	104 ± 10
O=c1cc(N2CCOCC2)oc2c(-c3ccccc3)cccc12	110 ± 19
O=C1C(SCCO)=C(SCCO)C(=O)c2ccccc21	107.4 ± 0.62
Cc1nc(-c2ccccc2)sc1C(=O)Nc1ccc(S(N)(=O)=O)cc1	101 ± 1.8
O=C(O)CC[N+](=O)[O-] [3-nitropropionic acid]	84.3 ± 4.9
C=CC(=O)c1ccc(O)cc1 [4-Acryloylphenol]	108 ± 2.5
Cc1[nH]nc(C(F)(F)F)c1Cc1sc2c(c1C(=O)N1C[C@](C)(O)CO1)c(=O)n(C)c(=O)n2C(C)C [AZD3965]	89.3 ± 17
O=c1cc(-c2ccccc2)oc2c1ccc1ccccc12 [Alpha-Naphtoflavone]	96.8 ± 1

Same assay, conditions: 0.01 µM; 72 h; co-treatment: AZD3965 100 nM

SMILES	cell viability [%]
CN(CCCOc1ccc(Cc2ccccc2)cc1)CCC(=O)O	101 ± 7.5
COc1ccc2c(NC(=O)Nc3cccc(C(F)(F)F)n3)ccnc2c1	99.88 ± 0.16
O=c1cc(N2CCOCC2)oc2c(-c3ccccc3)cccc12	101 ± 1.9
O=C1C(SCCO)=C(SCCO)C(=O)c2ccccc21	105 ± 6.2
Cc1nc(-c2ccccc2)sc1C(=O)Nc1ccc(S(N)(=O)=O)cc1	109 ± 3.9
O=C(O)CC[N+](=O)[O-] [3-nitropropionic acid]	95.1 ± 6.5
C=CC(=O)c1ccc(O)cc1 [4-Acryloylphenol]	99.2 ± 1.7
Cc1[nH]nc(C(F)(F)F)c1Cc1sc2c(c1C(=O)N1C[C@](C)(O)CO1)c(=O)n(C)c(=O)n2C(C)C [AZD3965]	98.1 ± 11
O=c1cc(-c2ccccc2)oc2c1ccc1ccccc12 [Alpha-Naphtoflavone]	99 ± 5.6

Same assay, conditions: 0.01 µM; 72 h; co-treatment: DMSO vehicle

SMILES	cell viability [%]
CN(CCCOc1ccc(Cc2ccccc2)cc1)CCC(=O)O	100 ± 4.3
COc1ccc2c(NC(=O)Nc3cccc(C(F)(F)F)n3)ccnc2c1	82.9 ± 21
O=c1cc(N2CCOCC2)oc2c(-c3ccccc3)cccc12	100 ± 6.6
O=C1C(SCCO)=C(SCCO)C(=O)c2ccccc21	104.7 ± 0.88
Cc1nc(-c2ccccc2)sc1C(=O)Nc1ccc(S(N)(=O)=O)cc1	109 ± 1.8
O=C(O)CC[N+](=O)[O-] [3-nitropropionic acid]	98.8 ± 1.1
C=CC(=O)c1ccc(O)cc1 [4-Acryloylphenol]	101.3 ± 0.4
Cc1[nH]nc(C(F)(F)F)c1Cc1sc2c(c1C(=O)N1C[C@](C)(O)CO1)c(=O)n(C)c(=O)n2C(C)C [AZD3965]	95.8 ± 3.9
O=c1cc(-c2ccccc2)oc2c1ccc1ccccc12 [Alpha-Naphtoflavone]	99.7 ± 3.6

Same assay, conditions: 0.01 µM; 72 h; co-treatment: GSK2194069 100 nM

SMILES	cell viability [%]
CN(CCCOc1ccc(Cc2ccccc2)cc1)CCC(=O)O	102 ± 4.6
COc1ccc2c(NC(=O)Nc3cccc(C(F)(F)F)n3)ccnc2c1	95.5 ± 3
O=c1cc(N2CCOCC2)oc2c(-c3ccccc3)cccc12	101.4 ± 0.35
O=C1C(SCCO)=C(SCCO)C(=O)c2ccccc21	98.79 ± 0.56
Cc1nc(-c2ccccc2)sc1C(=O)Nc1ccc(S(N)(=O)=O)cc1	104 ± 1.3
O=C(O)CC[N+](=O)[O-] [3-nitropropionic acid]	76.9 ± 5
C=CC(=O)c1ccc(O)cc1 [4-Acryloylphenol]	110 ± 15
Cc1[nH]nc(C(F)(F)F)c1Cc1sc2c(c1C(=O)N1C[C@](C)(O)CO1)c(=O)n(C)c(=O)n2C(C)C [AZD3965]	95.7 ± 3.5
O=c1cc(-c2ccccc2)oc2c1ccc1ccccc12 [Alpha-Naphtoflavone]	101 ± 5.7

Same assay, conditions: 0.01 µM; 72 h; co-treatment: pictilisib 100 nM

SMILES	cell viability [%]
CN(CCCOc1ccc(Cc2ccccc2)cc1)CCC(=O)O	110 ± 3.2
COc1ccc2c(NC(=O)Nc3cccc(C(F)(F)F)n3)ccnc2c1	73.9 ± 48
O=c1cc(N2CCOCC2)oc2c(-c3ccccc3)cccc12	104 ± 1.6
O=C1C(SCCO)=C(SCCO)C(=O)c2ccccc21	104 ± 5.3
Cc1nc(-c2ccccc2)sc1C(=O)Nc1ccc(S(N)(=O)=O)cc1	97.6 ± 6.2
O=C(O)CC[N+](=O)[O-] [3-nitropropionic acid]	82.1 ± 29
C=CC(=O)c1ccc(O)cc1 [4-Acryloylphenol]	103 ± 8.7
Cc1[nH]nc(C(F)(F)F)c1Cc1sc2c(c1C(=O)N1C[C@](C)(O)CO1)c(=O)n(C)c(=O)n2C(C)C [AZD3965]	97.7 ± 9.4
O=c1cc(-c2ccccc2)oc2c1ccc1ccccc12 [Alpha-Naphtoflavone]	101.3 ± 0.75

Same assay, conditions: 0.1 µM; 72 h; co-treatment: AZD3965 100 nM

SMILES	cell viability [%]
CN(CCCOc1ccc(Cc2ccccc2)cc1)CCC(=O)O	112 ± 15
COc1ccc2c(NC(=O)Nc3cccc(C(F)(F)F)n3)ccnc2c1	104.1 ± 0.52
O=c1cc(N2CCOCC2)oc2c(-c3ccccc3)cccc12	103.3 ± 0.19
O=C1C(SCCO)=C(SCCO)C(=O)c2ccccc21	104 ± 5.2
Cc1nc(-c2ccccc2)sc1C(=O)Nc1ccc(S(N)(=O)=O)cc1	96 ± 1.3
O=C(O)CC[N+](=O)[O-] [3-nitropropionic acid]	101 ± 3.9
C=CC(=O)c1ccc(O)cc1 [4-Acryloylphenol]	88.2 ± 19
Cc1[nH]nc(C(F)(F)F)c1Cc1sc2c(c1C(=O)N1C[C@](C)(O)CO1)c(=O)n(C)c(=O)n2C(C)C [AZD3965]	96 ± 4.1
O=c1cc(-c2ccccc2)oc2c1ccc1ccccc12 [Alpha-Naphtoflavone]	102 ± 4

Same assay, conditions: 0.1 µM; 72 h; co-treatment: DMSO vehicle

SMILES	cell viability [%]
CN(CCCOc1ccc(Cc2ccccc2)cc1)CCC(=O)O	104 ± 3.2
COc1ccc2c(NC(=O)Nc3cccc(C(F)(F)F)n3)ccnc2c1	103 ± 2.9
O=c1cc(N2CCOCC2)oc2c(-c3ccccc3)cccc12	102 ± 3.3
O=C1C(SCCO)=C(SCCO)C(=O)c2ccccc21	99.1 ± 1.8
Cc1nc(-c2ccccc2)sc1C(=O)Nc1ccc(S(N)(=O)=O)cc1	100.3 ± 1
